Test results published in US7439372B2, “Therapeutic compounds” (Allergan, Inc., priority 2006, dated 2008).

Key:
[1] = Ocular hyperemia in dog; format: in vivo; conditions: Conc. 0.1% (g/100 mL)
[2] = Intraocular pressure in dog; format: in vivo; conditions: Conc. 0.1% (g/100 mL)
Text: U.S. patent application Ser. No. 11/553,143, filed on Oct. 26, 2006, incorporated by reference herein, describes the methods used to obtain the in vitro data in the table below.

[3] = Intraocular pressure in monkey; format: in vivo; conditions: Conc. 0.1% (g/100 mL)
[4] = molecular target: T1, hEP4/Gqs5 (Homo sapiens, UniProt P35408); assay: FLIPR calcium signal, HEK-293(EBNA) cells expressing hEP4/Gqs5; format: cell-based
T1 construct: expressed in transfected cells; host or cells: HEK-293(EBNA)
Protocol: HEK-293(EBNA) cells, stably expressing one type or subtype of recombinant human prostaglandin receptors (prostaglandin receptors expressed: hDP/Gqs5; hEP1; hEP2/Gqs5; hEP3A/Gqi5; hEP4/Gqs5; hFP; hIP; hTP), were cultured in 100 mm culture dishes in high-glucose DMEM medium containing 10% fetal bovine serum, 2 mM l-glutamine, 250 µg/ml geneticin (G418) and 200 μg/ml hygromycin B as selection markers, and 100 units/ml penicillin G, 100 µg/ml streptomycin and 0.25 μg/ml amphotericin B.
Cells were seeded at a density of 5×10^4 cells per well in Biocoat® Poly-D-lysine-coated black-wall, clear-bottom 96-well plates (Becton-Dickinson) and allowed to attach overnight in an incubator at 37° C. Cells were then washed two times with HBSS-HEPES buffer (Hanks Balanced Salt Solution without bicarbonate and phenol red, 20 mM HEPES, pH 7.4) using a Denley Cellwash plate washer (Labsystems). After 45 minutes of dye-loading in the dark, using the calcium-sensitive dye Fluo-4 […] at a final concentration of 2 μM, plates were washed four times with HBSS-HEPES buffer to remove excess dye leaving 100 μl in each well. Plates were re-equilibrated to 37° C. for a few minutes.
Cells were excited with an Argon laser at 488 nm, and emission was measured through a 510-570 nm bandwidth emission filter (FLIPR™, Molecular Devices, Sunnyvale, Calif.). Drug solution was added in a 50 µl volume to each well to give the desired final concentration. The peak increase in fluorescence intensity was recorded for each well. On each plate, four wells each served as negative (HBSS-HEPES buffer) and positive controls (standard agonists: BW245C (hDP); PGE2 (hEP1; hEP2/Gqs5; hEP3A/Gqi5; hEP4/Gqs5); PGF2α (hFP); carbacyclin (hIP); U-46619 (hTP), depending on receptor). The peak fluorescence change in each drug-containing well was then expressed relative to the controls.
Compounds were tested in a high-throughput (HTS) or concentration-response (CoRe) format. In the HTS format, forty-four compounds per plate were examined in duplicates at a concentration of 10^−5 M. To generate concentration-response curves, four compounds per plate were tested in duplicates in a concentration range between 10^−5 and 10^−11 M. The duplicate values were averaged. In either, HTS or CoRe format each compound was tested on at least 3 separate plates using cells from different passages to give an n≧3.

[5] = molecular target: T2, EP4 receptors (Homo sapiens, UniProt P35408); assay: Radioligand binding, [3H]PGE2, HEK-293 cells stably expressing EP4 receptors; conditions: [3H]PGE2 competition
T2 construct: expressed in transfected cells; host or cells: HEK-293
Protocol: (§1) HEK-293 cells stably expressing the human or feline FP receptor, or EP1, EP2, or EP4 receptors were washed with TME buffer, scraped from the bottom of the flasks, and homogenized for 30 sec using a Brinkman PT 10/35 polytron. TME buffer was added to achieve a final 40 ml volume in the centrifuge tubes (the composition of TME is 100 mM TRIS base, 20 mM MgCl2, […]; 10N HCl is added to achieve a pH of 7.4).
(§2) The cell homogenate was centrifuged at 19000 r.p.m. for 20 min at 4° C. using a Beckman Ti-60 rotor. The resultant pellet was resuspended in TME buffer to give a final 1 mg/ml protein concentration, as determined by Biorad assay. Radioligand binding competition assays vs. [^3H-]17-phenyl PGF2α (5 nM) were performed in a 100 μl volume for 60 min. Binding reactions were started by adding plasma membrane fraction. The reaction was terminated by the addition of 4 ml ice-cold TRIS-HCl buffer and rapid filtration through glass fiber GF/B filters using a Brandel cell harvester. The filters were washed 3 times with ice-cold buffer and oven dried for one hour.
(§3) [^3H-]PGE2 (specific activity 180 Ci mmol) was used as the radioligand for EP receptors. [^3H]17-phenyl PGF2α was employed for FP receptor binding studies. Binding studies employing EP1, EP2, EP4 and FP receptors were performed in duplicate in at least three separate experiments. A 200 μl assay volume was used. Incubations were for 60 min at 25° C. and were terminated by the addition of 4 ml of ice-cold 50 mM TRIS-HCl, followed by rapid filtration through Whatman GF/B filters and three additional 4 ml washes in a cell harvester (Brandel). Competition studies were performed using a final concentration of 5 nM [^3H]-PGE2, or 5 nM [^3H] 17-phenyl PGF2α and non-specific binding determined with 10^−5M of unlabeled PGE2, or 17-phenyl PGF2α, according to receptor subtype studied.

[6] = molecular target: EP2 (Homo sapiens, UniProt P43116); assay: Competition binding, [3H]PGE2, HEK 293 cells stably expressing human EP2 receptors; set-up: expressed in transfected cells; host or cells: HEK 293; conditions: [3H]PGE2 competition
Protocol: Competition binding experiments were performed in a medium containing Hank's balanced salt solution, Hepes 20 mM, pH 7.3, membranes (˜60 μg protein) or 2×10^5 cells from HEK 293 cells stably expressing human EP2 receptors, [^3H]PGE2 (10 nM) and various concentrations of test compounds in a total volume of 300 μl. Reaction mixtures were incubated at 23° C. for 60 min, and were filtered over Whatman GF/B filters under vacuum. Filters were washed three times with 5 ml ice-cold buffer containing 50 mM Tris/HCl (pH 7.3). Non-specific binding was estimated in the presence of excess unlabeled PGE2 (10 μM). Binding data fitted to the binding model for a single class of binding sites, using nonlinear regression analysis. IC50 values thus obtained were converted to Ki using the equation of Ki=(IC50/(1+[L]/KD) where [L] represents PGE2 concentration (10 nM) and KD the dissociation constant for [3H]PGE2 at human EP2 receptors (40 nM).
as §1, §2, §3

T2 sequence (P35408 whole entry): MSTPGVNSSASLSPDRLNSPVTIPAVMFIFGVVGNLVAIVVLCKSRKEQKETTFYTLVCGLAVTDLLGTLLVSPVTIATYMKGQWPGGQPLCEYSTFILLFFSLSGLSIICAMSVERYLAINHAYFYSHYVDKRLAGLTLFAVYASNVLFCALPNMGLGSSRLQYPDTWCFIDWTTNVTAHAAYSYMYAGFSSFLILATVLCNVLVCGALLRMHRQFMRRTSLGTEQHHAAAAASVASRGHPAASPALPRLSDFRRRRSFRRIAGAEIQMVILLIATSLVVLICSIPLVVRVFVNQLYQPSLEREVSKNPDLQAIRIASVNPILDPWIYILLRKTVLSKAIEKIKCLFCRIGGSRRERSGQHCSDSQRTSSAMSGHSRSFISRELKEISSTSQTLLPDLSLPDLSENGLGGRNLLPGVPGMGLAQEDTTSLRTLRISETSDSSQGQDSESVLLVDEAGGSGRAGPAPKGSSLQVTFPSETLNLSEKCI
T1 sequence (P35408 whole entry): as above
Sequence of EP2 (P43116 whole entry): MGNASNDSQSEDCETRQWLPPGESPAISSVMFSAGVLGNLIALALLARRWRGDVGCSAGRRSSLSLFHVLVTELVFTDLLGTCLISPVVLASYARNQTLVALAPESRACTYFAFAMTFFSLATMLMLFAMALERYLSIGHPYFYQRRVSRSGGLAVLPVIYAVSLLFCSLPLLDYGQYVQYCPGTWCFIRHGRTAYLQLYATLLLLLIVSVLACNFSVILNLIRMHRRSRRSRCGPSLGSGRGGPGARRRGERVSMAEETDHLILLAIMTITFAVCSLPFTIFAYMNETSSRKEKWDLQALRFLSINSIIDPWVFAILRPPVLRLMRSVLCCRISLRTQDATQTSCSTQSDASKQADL

SMILES | DOG Max. hyperemia [1] | DOG Max. ΔIOP (%) [2] [%] | MONKEY Max. ΔIOP (%) [3] [%] | Ca2+ Signal-EC50(nM) EP4 [4] | Ki [5] [nM] | Ki [6] [nM]
CCCCCC(O)c1ccc([C@H]2C(=O)CC[C@@H]2CCCc2ccc(C(=O)OC(C)C)s2)cc1 (some centres unmarked) [compound 1] | 1.6 | −37 |  |  |  | 
CCCCCC(O)c1ccc([C@@H]2[C@@H](CCCc3ccc(C(=O)OC(C)C)s3)CCC2(Cl)Cl)cc1 (some centres unmarked) [compound 2] | 0.4 | −6 | −21 |  |  | 
CCCCCC(O)c1ccc([C@H]2C(=O)C=C[C@@H]2C/C=C\CCCC(=O)O)cc1 (some centres unmarked) [compound 4] |  |  |  | notactive | 4330 | > 10000
